{"source": "patent US10800816B2", "about": "(Baxalta GmbH, priority 2012, dated 2020)", "key": {"[1]": {"system": "neutrophil elastase", "experiment": "Proteolytic degradation of fl-TFPI by neutrophil elastase", "format": "biochemical, human", "details": "1 μM peptide, 5 nM fl-TFPI, 5 nM elastase, up to 60 minutes"}, "[2]": {"molecular_target": "T1, HUVEC TFPI (Homo sapiens, UniProt P10646)", "T1 construct": "endogenous in cells; host or cells: HUVEC stimulated with TNFα", "T1 sequence (P10646 29-304)": "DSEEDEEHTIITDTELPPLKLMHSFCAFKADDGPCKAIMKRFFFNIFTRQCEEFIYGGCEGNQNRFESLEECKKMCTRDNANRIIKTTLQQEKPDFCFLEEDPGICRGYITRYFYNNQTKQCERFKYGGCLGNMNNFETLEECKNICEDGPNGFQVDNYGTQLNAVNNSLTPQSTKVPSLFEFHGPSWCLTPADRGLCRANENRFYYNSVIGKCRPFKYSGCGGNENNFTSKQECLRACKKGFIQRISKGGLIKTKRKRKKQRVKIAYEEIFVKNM", "experiment": "Cell-based extrinsic tenase assay (HUVEC)", "details": "relative to 100 nM polyclonal anti-human TFPI antibody = 100%"}, "[3]": {"molecular_target": "T2, TFPI (Homo sapiens, UniProt P10646)", "T2 sequence (P10646 29-304)": "T1 sequence (P10646 29-304)", "experiment": "FXa inhibition by TFPI in presence of Ca2+, phospholipid and protein S", "format": "biochemical", "details": "50 nM peptide; PL+Ca2++protein S", "method": "The effects of TFPI binding peptides on the anticoagulant activity of TFPI was tested in model systems (inhibition of FXa and TF-FVIIa-catalysed FX activation by TFPI) and in plasma (NP, PPP, PRP or TFPI-depleted plasma reconstituted with recombinant- or platelet-TFPI or platelets). […] […])/kobs in which At is absorbance at 405 nm at time t; A0 is initial absorbance at 405 nm; vs is final steady-state velocity; v0 is initial velocity; kobs is apparent rate constant for the transition from v0 to vs (FXa-TFPI to FXa-TFPI*). The values v0 and vs relative to rates of chromogenic substrate conversion by FXa in the absence of TFPI, represent the extent of loose and tight FXa-TFPI complex formation."}, "[4]": {"molecular_target": "T3, fl-TFPI / ASGPR (Homo sapiens, UniProt P10646)", "T3 sequence (P10646 29-304)": "T1 sequence (P10646 29-304)", "experiment": "BIAcore: fl-TFPI binding to ASGPR in presence of peptide", "details": "1 μM peptide"}, "[5]": {"molecular_target": "T4, platelet TFPI (Homo sapiens, UniProt P10646)", "T4 construct": "from tissue; donor PPP and PRP", "T4 sequence (P10646 29-304)": "T1 sequence (P10646 29-304)", "experiment": "TF-FVIIa-catalysed FX activation inhibited by platelet TFPI", "format": "biochemical", "details": "50 nM peptide"}, "[6]": {"system": "cynomolgus TFPI 1-160", "experiment": "FXa inhibition assay with cynomolgus monkey TFPI 1-160", "format": "biochemical"}, "[7]": {"molecular_target": "T2, TFPI", "experiment": "koff assay", "format": "binding", "details": "24 hour incubation"}, "[8]": {"system": "TFPI", "experiment": "FXa inhibition assay (human TFPI)", "details": "all human TFPI concentrations tested (up to 10 nM)"}, "[9]": {"molecular_target": "T2, TFPI", "experiment": "Plasma-based thrombin generation assay (calibrated automated thrombography), human plasma", "details": "50-100 nM peptide; 10 nM flTFPI, FVIII-inhibited plasma"}, "[10]": {"molecular_target": "T5, plasma- and platelet TFPI (Homo sapiens, UniProt P10646)", "T5 construct": "from tissue; donor PPP and PRP", "T5 sequence (P10646 29-304)": "T1 sequence (P10646 29-304)", "experiment": "Thrombin generation in platelet-poor and platelet-rich plasma", "format": "biochemical"}, "[11]": {"system": "TFPI", "experiment": "Extrinsic tenase inhibition assay", "details": "Table 19; 0.0625 nM TFPI"}, "[12]": {"molecular_target": "T6, fl-TFPI / LRP (Homo sapiens, UniProt P10646)", "T6 sequence (P10646 29-304)": "T1 sequence (P10646 29-304)", "T6 sequence (Q07954 852-1182 partner limits assumed)": "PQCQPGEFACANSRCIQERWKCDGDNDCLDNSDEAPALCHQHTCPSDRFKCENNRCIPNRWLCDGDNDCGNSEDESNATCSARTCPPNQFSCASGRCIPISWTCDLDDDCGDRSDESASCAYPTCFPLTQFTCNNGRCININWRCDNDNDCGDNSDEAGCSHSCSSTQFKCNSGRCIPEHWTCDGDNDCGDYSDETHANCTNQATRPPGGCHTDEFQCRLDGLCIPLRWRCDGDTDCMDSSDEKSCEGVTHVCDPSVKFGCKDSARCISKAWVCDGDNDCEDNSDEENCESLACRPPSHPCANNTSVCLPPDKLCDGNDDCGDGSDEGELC", "experiment": "BIAcore: fl-TFPI binding to LRP in presence of peptide", "details": "1 μM peptide, 10 nM fl-TFPI"}, "[13]": {"system": "FVIII-inhibited whole blood", "experiment": "Rotation thromboelastography (ROTEM) in whole blood", "set-up": "species or system human", "details": "concentrations above 100 nM; 2 nM and 10 nM full length TFPI added"}, "[14]": {"experiment": "in vitro", "details": "human, plasma"}}, "note": "Bridges are numbered along the chain shown (N, C = ends). [ ]: non-standard residue; d: D form. Aib = CC(C)(N)C(=O)O"}
{"substance": "Ac-FQSK[dP]NVHVDGYFERL[Aib]AKLSSSSSSSSSSSYYKWHCAMRDMKGTMTCVWVKF-NH2 (disulfide 37-48 (inferred)) [JBT2547]", "values": [{"measurement": "effect on proteolysis of fl-TFPI by neutrophil elastase", "setting": "[1]", "value": "proteolysis of fl-TFPI was blocked during the monitored time"}, {"measurement": "concentration achieving full inhibition of TFPI", "setting": "[2]", "value": "about 10 nM"}, {"measurement": "blocking of TFPI", "setting": "[3]", "value": "almost completely blocked TFPI"}, {"measurement": "fl-TFPI interaction with ASGPR in presence of peptide", "setting": "[4]", "value": "interacted with ASGPR"}, {"measurement": "blocking of platelet TFPI inhibition of TF-FVIIa-catalysed FX activation", "setting": "[5]", "value": "completely blocked the anticoagulant activity of TFPI"}, {"measurement": "reduction of EC50 compared to JBT1857", "setting": "[6]", "value": "approximately 200 fold"}, {"measurement": "reduction of EC50 compared to the combination of JBT1837 and JBT1857", "setting": "[6]", "value": "~10", "unit": "fold"}, {"measurement": "Cynomolgus Monkey TFPI 1-160 Maximal inhibition (%)", "setting": "[6]; Table 20", "value": 100, "unit": "%"}, {"measurement": "blocking of tracer JBT2271 binding after incubation", "setting": "[7]", "value": "continued to block binding of the tracer to TFPI"}, {"measurement": "inhibition of TFPI activity", "setting": "[8]", "value": 100, "unit": "%"}, {"measurement": "compensation of added flTFPI", "setting": "[9]", "value": "fully compensated the anticoagulant effect of 10 nM flTFPI"}, {"measurement": "enhancement of thrombin generation", "setting": "[10]; PPP", "value": "3-4 fold"}, {"measurement": "concentration sufficient to fully inhibit TFPI", "setting": "[10]; PPP and PRP", "value": "5 to 10", "unit": "nM"}, {"measurement": "enhancement of thrombin generation", "setting": "[10]; PRP with inhibitory FVIII antibody", "value": 3, "unit": "fold"}, {"measurement": "Extrinsic Tenase Assay Maximal inhibition (%)", "setting": "[11]", "value": 99, "unit": "%"}, {"measurement": "fl-TFPI interaction with LRP in presence of peptide", "setting": "[12]", "value": "higher response than that observed for TFPI complexed with single peptides"}, {"measurement": "restoration of coagulation with added full length TFPI", "setting": "[13]", "value": "fully restored normal coagulation of FVIII-inhibited whole blood"}, {"measurement": "remaining at 24 h", "setting": "[14]", "value": 54, "unit": "%"}]}
